Laboratory results: US9782377B2, “Composition for normalization of infradian rhythm” (SUNTORY HOLDINGS LIMITED, priority 2003, dated 2017)

Tested on: male Fischer rats
Test: Days until circadian rhythm synchronized after 6-hour backward/forward phase change of light-and-dark cycle
Type: in vivo, rat
Conditions: for days required for synchronization, backward movement of the phase: 6 hours backward; for days required for synchronization, forward movement of the phase: 6 hours forward

CCCCC/C=C\C/C=C\C/C=C\C/C=C\CCCC(=O)OC(COC(=O)CCCCCCC)COC(=O)CCCCCCC [8A8, 1,3-capryloyl-2-arachidonoyl-glycerol]
time (days) required for synchronization (overall conclusion on ingestion of 8A8 versus control feed): shortened
days required for synchronization, backward movement of the phase (rats of 2 months age, 8A8-compounded feed (control feed group 3.7 days)): 4.1 days
days required for synchronization, forward movement of the phase (rats of 2 months age, 8A8-compounded feed (control feed group 9.8 days)): 9.43 days
days required for synchronization, backward movement of the phase (rats of 18 months age, 8A8-compounded feed (control feed group 7.28 days)): 5.72 days
days required for synchronization, forward movement of the phase (rats of 18 months age, 8A8-compounded feed (control feed group 5.63 days)): 3.32 days
